Measured values as given in the NIST ThermoML archive (doi:10.1016/j.jct.2013.09.007).
± gives the expanded uncertainty stated by the source.

Tests used:
[1] = 101.33 kPa, Liquid, Vibrating tube method
[2] = activity coefficient (dimensionless); of the first substance listed, at infinite dilution; xn = mol fraction of the nth substance listed; details: 101 kPa, Liquid, Chromatography, x1 = 0

Structure (SMILES)	mass density ([1]; 308.15 K)	mass density ([1]; 318.15 K)	mass density ([1]; 328.15 K)	mass density ([1]; 338.15 K)	mass density ([1]; 348.15 K)	mass density ([1]; 358.15 K)	activity coefficient ([2]; 308.15 K)	activity coefficient ([2]; 318.15 K)	activity coefficient ([2]; 328.15 K)	activity coefficient ([2]; 338.15 K)	activity coefficient ([2]; 348.15 K)	activity coefficient ([2]; 358.15 K)	activity coefficient ([2]; 368.15 K)
CCCC[n+]1cccc(C)c1.N#C[N-]C#N [1-butyl-3-methylpyridinium dicyanamide]	1040.66 ± 2.1 kg/m3	1034.63 ± 2.1 kg/m3	1028.66 ± 2.1 kg/m3	1022.75 ± 2.1 kg/m3	1016.77 ± 2 kg/m3	1010.8 ± 2 kg/m3							
CC(C)CC(C)(C)C [2,2,4-trimethylpentane] + CCCC[n+]1cccc(C)c1.N#C[N-]C#N							104 ± 7	93.3 ± 6.4	85.8 ± 5.9	78.3 ± 5.4	72.6 ± 5	67 ± 4.6	61.7 ± 4.2
C1CCCCCC1 [cycloheptane] + CCCC[n+]1cccc(C)c1.N#C[N-]C#N							27.3 ± 1.9	25.2 ± 1.7	23.6 ± 1.6	22.1 ± 1.5	20.7 ± 1.4	19.5 ± 1.3	18.5 ± 1.3
C=CCCCC [hex-1-ene] + CCCC[n+]1cccc(C)c1.N#C[N-]C#N							22.4 ± 1.5	21.4 ± 1.5	20.4 ± 1.4	19.5 ± 1.3	18.7 ± 1.3	17.8 ± 1.2	17.1 ± 1.2
CCOC(C)(C)C [2-ethoxy-2-methylpropane] + CCCC[n+]1cccc(C)c1.N#C[N-]C#N							18 ± 1.2	17.5 ± 1.2	17 ± 1.2	16.7 ± 1.1	16.3 ± 1.1	15.9 ± 1.1	15.6 ± 1.1
CCC[N+](=O)[O-] [1-nitropropane] + CCCC[n+]1cccc(C)c1.N#C[N-]C#N										1.13 ± 0.07	1.14 ± 0.07	1.15 ± 0.07	1.15 ± 0.07
C#CCCC [1-pentyne] + CCCC[n+]1cccc(C)c1.N#C[N-]C#N							2.9 ± 0.2	2.97 ± 0.2	3.05 ± 0.21	3.14 ± 0.21	3.21 ± 0.22	3.28 ± 0.22	3.35 ± 0.23
CC#N [acetonitrile] + CCCC[n+]1cccc(C)c1.N#C[N-]C#N										0.736 ± 0.049	0.748 ± 0.049	0.76 ± 0.05	0.764 ± 0.05
C1COCCO1 [1,4-dioxane] + CCCC[n+]1cccc(C)c1.N#C[N-]C#N										1.01 ± 0.06	1.05 ± 0.07	1.08 ± 0.07	1.11 ± 0.07
CCC(=O)CC [pentan-3-one] + CCCC[n+]1cccc(C)c1.N#C[N-]C#N									1.84 ± 0.12	1.89 ± 0.13	1.94 ± 0.13	1.97 ± 0.13	2.01 ± 0.14
C1CCCC1 [cyclopentane] + CCCC[n+]1cccc(C)c1.N#C[N-]C#N							15.1 ± 1	14.2 ± 1	13.4 ± 0.9	12.6 ± 0.9	11.9 ± 0.8	11.3 ± 0.8	10.9 ± 0.7
CCCCO [butan-1-ol] + CCCC[n+]1cccc(C)c1.N#C[N-]C#N										0.88 ± 0.056	0.855 ± 0.055	0.84 ± 0.054	0.814 ± 0.053
CCCCC(C)=O [2-hexanone] + CCCC[n+]1cccc(C)c1.N#C[N-]C#N									2.44 ± 0.17	2.48 ± 0.17	2.54 ± 0.17	2.59 ± 0.18	2.63 ± 0.18
Cc1ccc(C)cc1 [1,4-dimethylbenzene] + CCCC[n+]1cccc(C)c1.N#C[N-]C#N									2.86 ± 0.19	2.92 ± 0.2	3.02 ± 0.21	3.08 ± 0.21	3.17 ± 0.22
c1ccncc1 [pyridine] + CCCC[n+]1cccc(C)c1.N#C[N-]C#N										0.718 ± 0.048	0.731 ± 0.048	0.754 ± 0.05	0.768 ± 0.05
C=CCCCCC [1-heptene] + CCCC[n+]1cccc(C)c1.N#C[N-]C#N							33.1 ± 2.3	31.2 ± 2.1	29.7 ± 2	28.3 ± 1.9	27 ± 1.8	25.9 ± 1.8	24.8 ± 1.7
CCCCCC [hexane] + CCCC[n+]1cccc(C)c1.N#C[N-]C#N							56.1 ± 3.8	51.7 ± 3.5	47.8 ± 3.3	44.3 ± 3	41.3 ± 2.8	38.6 ± 2.6	36 ± 2.5
